Data set [1] concerns NK cells. Nature of the data set: Test 3 NK cell cytotoxicity of spleen cells against calcein-stained YAC-1 target cells. The format is cell-based, mouse. The note with it: test substance 1 μg/mL, 18 hours, then YAC-1 target cells 4 hours, control set to 1. The protocol:
After dissection of a C57BL/6J mouse (8 weeks old), spleen cells were isolated, and a cell suspension prepared by dilution in a 10% fetal bovine serum-RPMI 1640 medium was seeded at 100 µL/well so that the cells were seeded at 5×10^6 cells/well in a 96-well plate. To the seeded cells, a medium (0.5% DMSO-10% fetal bovine serum-RPMI 1640 medium) prepared to have a total concentration of test substances of 1 μg/mL (for young barley leaf juice powder, the concentration of young barley leaf juice ingredient excluding dextrin was 1 μg/mL) was added at 100 μL/well, and the resultant was cultured for 18 hours in a 5% CO2 incubator (“CO2 Incubator” manufactured by ASTEC) at 37° C.
After culture, the plate was centrifuged (at 1,000 rpm for 10 minutes) using a centrifuge. 150 μL of the supernatant was removed, and 150 μL of 1% BSA-RPMI 1640 was added. This process was repeated once more. After that, YAC-1 cells (stained with calcein) sensitive to NK cells were added as target cells, and the resultant was cultured for 4 hours.
After culture, the plate was centrifuged (at 1,000 rpm for 10 minutes) using a centrifuge, and the supernatant was collected in a 96-well black plate. The collected supernatant was measured for fluorescence intensity (at an excitation wavelength of 490 nm and a fluorescence wavelength of 515 nm) using a microplate reader (“SpectraMax i3x” manufactured by Molecular Devices), and the NK cell cytotoxicity was evaluated.
The NK cell cytotoxicity (relative value) is shown in Table 5 with the value of the control set to 1. A higher relative value of NK cell cytotoxicity indicates greater activation of NK cells. […] Even if dietary fiber (cellulose), Vitamin D, or Spirulina, which are known to have immune-stimulating effects, was added, the NK cells were not activated.

Data set [2] concerns bone marrow-derived dendritic cells (including both cDCs and pDCs). Nature of the data set: Test 1 (A) TNF-α gene expression in bone marrow-derived dendritic cells (real-time PCR). The format is cell-based, mouse. As to conditions: test substance 10 μg/mL, 72 hours; TNF-α/β-actin, control with no test substance set to 1. The protocol:
After dissection of a C57BL/6J mouse (8 weeks old), bone marrow mononuclear cells were sampled from the femur and tibia, and cultured using a differentiation induction medium (RPMI 1640 medium containing 10% fetal bovine serum, 100 μM of 2-mercaptoethanol, and 100 ng/ml of Flt3 ligand). […] After the medium was removed from each well, 100 μL of a differentiation induction medium containing 0.5% DMSO, which was prepared so that a total concentration of the test substances was 10 μg/mL (for young barley leaf juice powder, the concentration of young barley leaf juice ingredient excluding dextrin was 10 μg/mL), was added to each well and cultured for 72 hours. After that, the medium was removed from each well, and RNA was collected using the RNeasy Mini Kit (manufactured by QIAGEN). From the obtained RNA, a gene expression level (mRNA expression level) of TNF-α was measured by the real-time PCR method using the One Step TB Green® PrimeScript™ RT-PCR Kit II <Perfect Real Time> (manufactured by TaKaRa). For a primer, Mm_Il12B_1_SG QuantiTect Primer Assay and Mm_Tnf1_SG QuantiTect Primer Assay (manufactured by QIAGEN) were used.

These results are taken from patent US20250127840A1, “METHOD FOR ACTIVATING DENDRITIC CELLS AND METHOD FOR ACTIVATING NATURAL KILLER CELLS, HELPER T CELLS, KILLER T CELLS, B CELLS, OR MACROPHAGES” (TOYO SHINYAKU CO., LTD., priority 2023, published 2025).

`C=C1CC[C@H](O)C/C1=C/C=C1\CCC[C@]2(C)[C@@H]([C@H](C)CCCC(C)C)CC[C@@H]12` [compound 2, Vitamin D3]: the “NK cell cytotoxicity (relative value)” value is listed as “not activated” in data set [1] and 0.93 in data set [1] (listed as Comparative Example 5).
Cellulose [compound 1]: the results for the “NK cell cytotoxicity (relative value)” value in data set [1] and in data set [1] (listed as Comparative Example 4) were “not activated” and 1.05, respectively.
Take β-glucan [compound 3]: in data set [1], the “NK cell cytotoxicity (relative value)” value was 1.04. The “TNF-α gene expression level (relative value)” value in data set [2] was found to be 1.17.
